In ChEMBL document CHEMBL5352429, “Designed symmetrical β-hairpin peptides for treating multidrug-resistant salmonella typhimurium infections” (Eur J Med Chem, 2022):
Converted amounts (≈) assume the structure as drawn. The source made the active and inactive calls. No cut-off for these calls is given here. Peptide text beside a SMILES is read from it.

Tests used:
Salmonella typhimurium [1] = test: Antibacterial activity against Salmonella typhimurium DT104 in the presence of NH4Cl by MH broth based assay; assay type: functional, Salmonella enterica subsp. enterica serovar Typhimurium; conditions: Salmonella enterica
Salmonella typhimurium [2] = test: Antibacterial activity against Salmonella typhimurium DT104 ATCC 700408 incubated overnight by standard microtiter dilution method; assay type: functional, Salmonella enterica subsp. enterica serovar Typhimurium; conditions: Salmonella enterica
Escherichia coli = test: Antibacterial activity against Escherichia coli O157:H7 CICC 21530 incubated overnight by standard microtiter dilution method; assay type: functional
Salmonella enteritidis = test: Antibacterial activity against Salmonella enteritidis CICC 21527 incubated overnight by standard microtiter dilution method; assay type: functional, Salmonella enterica subsp. enterica serovar Enteritidis; conditions: Salmonella enterica
Salmonella typhimurium [3] = test: Antibacterial activity against Salmonella typhimurium DT104 in the presence of KCl by MH broth based assay; assay type: functional, Salmonella enterica subsp. enterica serovar Typhimurium; conditions: Salmonella enterica
Lipopolysaccharide (LPS) = test: Displacement of BODIPY-TR-cadaverine from Salmonella typhimurium LPS assessed as increase in fluorescence intensity by fluorescence spectrophotometric analysis; conditions: Salmonella enterica subsp. enterica serovar Typhimurium; dose 0.25-8 µg/ml
RAW264.7 [4] = test: Inhibition of LPS-stimulated NO production in mouse RAW264.7 cells incubated for 24 hrs by Griess reagent based analysis; assay type: functional, cell-based; conditions: dose 1-128 µg/ml
Salmonella typhimurium [5] = test: Antibacterial activity against Salmonella typhimurium DT104 in the presence of FeCl3 by MH broth based assay; assay type: functional, Salmonella enterica subsp. enterica serovar Typhimurium; conditions: Salmonella enterica
[6] = Antibacterial activity against Salmonella enterica subsp. enterica serovar Choleraesuis CICC 21493 incubated overnight by standard microtiter dilution method; assay type: functional
Salmonella typhimurium [7] = test: Antibacterial activity against Salmonella typhimurium CICC 21913 incubated overnight by standard microtiter dilution method; assay type: functional, Salmonella enterica subsp. enterica serovar Typhimurium; conditions: Salmonella enterica
[8] = Cytotoxicity against mouse RAW264.7 cells assessed as cell viability at 128 ug/ml incubated for 24 hrs by MTT assay; assay type: toxicity, cell-based; conditions: at 128 µg/mL, read-out: Activity
[9] = Antibacterial activity against Salmonella enterica subsp. enterica serovar Choleraesuis ATCC 13312 incubated overnight by standard microtiter dilution method; assay type: functional
Candida albicans = test: Antifungal activity against Candida albicans ATCC 10231 incubated overnight by standard microtiter dilution method; assay type: functional
Salmonella typhimurium [10] = test: Antibacterial activity against Salmonella typhimurium DT104 in the presence of MgCl2 by MH broth based assay; assay type: functional, Salmonella enterica subsp. enterica serovar Typhimurium; conditions: Salmonella enterica
[11] = Antibacterial activity against Salmonella paratyphi C CICC 21512 incubated overnight by standard microtiter dilution method; assay type: functional, Salmonella enterica subsp. enterica serovar Paratyphi C; conditions: Salmonella enterica
Salmonella typhimurium [12] = test: Antibacterial activity against Salmonella typhimurium DT104 in the presence 50% inactivated mouse serum by MH broth based assay; assay type: functional, Salmonella enterica subsp. enterica serovar Typhimurium; conditions: Salmonella enterica
Cell membrane = test: Disruption of membrane integrity in Salmonella typhimurium DT104 assessed as increase in fluorescence intensity at 0.5 to 2 times of MIC incubated for 15 mins by PI staining based flow cytometric analysis; assay type: subcellular; conditions: Salmonella enterica subsp. enterica serovar Typhimurium
Staphylococcus aureus [13] = test: Antibacterial activity against methicillin-resistant Staphylococcus aureus ATCC 43300 incubated overnight by standard microtiter dilution method; assay type: functional
[14] = Hemolytic activity in human Red blood cells assessed as hemolysis at 128 ug/ml incubated for 1 hrs by absorbance based microplate reader analysis relative to control; assay type: toxicity, cell-based, Erythrocyte; conditions: red blood cells (erythrocytes), at 128 µg/mL, read-out: Activity
Salmonella typhimurium [15] = test: Antibacterial activity against Salmonella typhimurium DT104 in the presence of CaCl2 by MH broth based assay; assay type: functional, Salmonella enterica subsp. enterica serovar Typhimurium; conditions: Salmonella enterica
Salmonella paratyphi = test: Antibacterial activity against Salmonella paratyphi A CICC 21501 incubated overnight by standard microtiter dilution method; assay type: functional, Salmonella enterica subsp. enterica serovar Paratyphi A; conditions: Salmonella enterica
RAW264.7 [16] = test: Inhibition of LPS-stimulated TNF-alpha production in mouse RAW264.7 cells at 1 to 128 ug/ml incubated for 24 hrs by ELISA analysis; assay type: functional, cell-based; conditions: dose 1-128 µg/ml
Salmonella typhimurium [17] = test: Antibacterial activity against Salmonella typhimurium CICC 21483 incubated overnight by standard microtiter dilution method; assay type: functional, Salmonella enterica subsp. enterica serovar Typhimurium; conditions: Salmonella enterica
RAW264.7 [18] = test: Inhibition of LPS-stimulated IL-8 production in mouse RAW264.7 cells at 1 to 128 ug/ml incubated for 24 hrs by ELISA analysis; assay type: functional, cell-based; conditions: dose 1-128 µg/ml
Enterococcus faecalis = test: Antibacterial activity against Enterococcus faecalis ATCC 29212 incubated overnight by standard microtiter dilution method; assay type: functional
Salmonella typhimurium [19] = test: Antibacterial activity against Salmonella typhimurium DT104 in the presence 25% inactivated mouse serum by MH broth based assay; assay type: functional, Salmonella enterica subsp. enterica serovar Typhimurium; conditions: Salmonella enterica
[20] = Antibacterial activity against Salmonella wandsworth CICC 21504 incubated overnight by standard microtiter dilution method; assay type: functional, Salmonella enterica subsp. enterica serovar Wandsworth; conditions: Salmonella enterica
[21] = Antibacterial activity against Salmonella blockley CICC 21489 incubated overnight by standard microtiter dilution method; assay type: functional, Salmonella enterica subsp. enterica serovar Blockley; conditions: Salmonella enterica
[22] = tested on: Salmonella enterica subsp. enterica serovar Paratyphi B; test: Antibacterial activity against Salmonella paratyphi B CICC 21495 incubated overnight by standard microtiter dilution method; assay type: functional
Salmonella typhimurium [23] = test: Antibacterial activity against Salmonella typhimurium DT104 in the presence of NaCl by MH broth based assay; assay type: functional, Salmonella enterica subsp. enterica serovar Typhimurium; conditions: Salmonella enterica
Erythrocyte = test: Hemolytic activity in human Red blood cells assessed as hemolysis incubated for 1 hrs by absorbance based microplate reader analysis; assay type: toxicity, cell-based
[24] = Antibacterial activity against Salmonella dublin CICC 21497 incubated overnight by standard microtiter dilution method; assay type: functional, Salmonella enterica subsp. enterica serovar Dublin; conditions: Salmonella enterica
Staphylococcus aureus [25] = test: Antibacterial activity against Staphylococcus aureus ATCC 29213 incubated overnight by standard microtiter dilution method; assay type: functional
[26] = tested on: Staphylococcus epidermidis; test: Antibacterial activity against methicillin-resistant Staphylococcus epidermidis ATCC 12228 incubated overnight by standard microtiter dilution method; assay type: functional
RAW264.7 [27] = test: Inhibition of LPS-stimulated IL-1beta production in mouse RAW264.7 cells at 1 to 128 ug/ml incubated for 24 hrs by ELISA analysis; assay type: functional, cell-based; conditions: dose 1-128 µg/ml
Salmonella typhimurium [28] = test: Antibacterial activity against Salmonella typhimurium DT104 infected in mouse RAW264.7 cells assessed as reduction in bacterial cells at 1 times of MIC measured for 180 mins by MH agar based serial dilution method; assay type: functional, organism-based; conditions: Salmonella enterica subsp. enterica serovar Typhimurium

Compound | MIC (Salmonella typhimurium [2]) [µg/mL] | MIC (Escherichia coli) [µg/mL] | MIC (Salmonella enteritidis) [µg/mL] | MIC [6] [µg/mL] | MIC (Salmonella typhimurium [7]) [µg/mL] | MIC [9] [µg/mL] | MIC (Candida albicans) [µg/mL] | MIC [11] [µg/mL] | MIC (Staphylococcus aureus [13]) [µg/mL] | MIC (Salmonella paratyphi) [µg/mL] | MIC (Salmonella typhimurium [17]) [µg/mL] | MIC (Enterococcus faecalis) [µg/mL] | MIC [20] [µg/mL] | MIC [21] [µg/mL] | MIC [22] [µg/mL] | MIC [24] [µg/mL] | MIC (Staphylococcus aureus [25]) [µg/mL] | MIC [26] [µg/mL] | other results
CC(C)[C@H](N)C(=O)N[C@@H](CCCCN)C(=O)N[C@H](C(=O)N[C@@H](CCCCN)C(=O)N[C@H](C(=O)N[C@@H](CCCCN)C(=O)N[C@@H](CS)C(=O)N[C@H](C(=O)N[C@@H](CCCCN)C(=O)N[C@@H](CO)C(=O)NCC(=O)N[C@@H](CS)C(=O)N[C@@H](CCCCN)C(=O)N[C@H](C(=O)N[C@@H](CCCCN)C(=O)N[C@H](C(=O)N[C@@H](CCCCN)C(=O)N[C@H](C(N)=O)C(C)C)C(C)C)C(C)C)[C@@H](C)O)C(C)C)C(C)C (H-VKVKVKCTKSGCKVKVKV-NH2) | 32 (≈ 16.3 µM) | 2 (≈ 1.02 µM) | 32 (≈ 16.3 µM) | 32 (≈ 16.3 µM) | > 128 | 0.5 (≈ 0.255 µM) | 8 (≈ 4.08 µM) | 2 (≈ 1.02 µM) | > 128 | 2 (≈ 1.02 µM) | 64 (≈ 32.6 µM) | 4 (≈ 2.04 µM) | 4 (≈ 2.04 µM) | 16 (≈ 8.16 µM) | 1 (≈ 0.51 µM) | 4 (≈ 2.04 µM) | > 128 | 4 (≈ 2.04 µM) | MIC (Salmonella typhimurium [1]): 64 µg/mL; MIC (Salmonella typhimurium [3]): 128 µg/mL; Activity (Lipopolysaccharide (LPS)): Dose-Dependent Effect; inhibition (RAW264.7 [4]): Dose-Dependent Effect; MIC (Salmonella typhimurium [5]): 64 µg/mL; viability at 24 h, 128 ug/ml [8]: 39.8%; MIC (Salmonella typhimurium [10]): > 128 µg/mL; MIC (Salmonella typhimurium [12]): > 128 µg/mL; Activity (Cell membrane): Active; hemolysis at 1 h, 128 ug/ml [14]: < 10%; MIC (Salmonella typhimurium [15]): > 128 µg/mL; inhibition (RAW264.7 [16]): Active; inhibition (RAW264.7 [18]): Active; MIC (Salmonella typhimurium [19]): > 128 µg/mL; MIC (Salmonella typhimurium [23]): > 128 µg/mL; MHC (Erythrocyte): > 128 µg/mL; inhibition (RAW264.7 [27]): Active
CN[C@@H]1[C@H](O[C@H]2[C@H](O[C@H]3[C@H](O)[C@@H](O)[C@H](N=C(N)N)[C@@H](O)[C@@H]3N=C(N)N)O[C@@H](C)[C@]2(O)C=O)O[C@@H](CO)[C@H](O)[C@H]1O [STREPTOMYCIN] | 128 (≈ 220 µM) | 64 (≈ 110 µM) | 16 (≈ 27.5 µM) | 32 (≈ 55 µM) | 64 (≈ 110 µM) | 64 (≈ 110 µM) | 128 (≈ 220 µM) | 64 (≈ 110 µM) | 8 (≈ 13.8 µM) | 32 (≈ 55 µM) | 32 (≈ 55 µM) | 64 (≈ 110 µM) | 2 (≈ 3.44 µM) | > 128 | 32 (≈ 55 µM) | 128 (≈ 220 µM) | 4 (≈ 6.88 µM) | 0.25 (≈ 0.43 µM) | Activity (Salmonella typhimurium [28]): Active
